Paper PMC6274357, “Antiprotozoal and Antiglycation Activities of Sesquiterpene Coumarins from Ferula narthex Exudate” (Molecules, 2016)
Converted amounts (≈) assume the structure as drawn.

Experiments:
Trypanosoma brucei = test: Antitrypanosomal activity, T. brucei; assay type: cell-based; conditions: read-out: IC50 T. bruc.
Description: (§1) Fractions and isolated compounds were evaluated for antimicrobial activity in an integrated screening panel as reported before.

[1] = tested on: Leishmania promastigote stage; design: method as in doi:10.1016/j.phytol.2014.04.009; conditions: cited from earlier work
Escherichia coli = test: Antibacterial screening, E. coli; assay type: cell-based
Description: as §1

[2] = tested on: MRC-5: Human fetal lung fibroblasts; test: Cytotoxicity on MRC-5 cells; assay type: cell-based; conditions: MRC5
Description: as §1

Plasmodium falciparum K1 = test: Antiplasmodial activity; assay type: cell-based; conditions: K1, read-out: IC50 Pf-K1
Description: as §1

Trypanosoma cruzi = test: Antitrypanosomal activity, T. cruzi; assay type: cell-based; conditions: read-out: IC50 T. cruz.
Description: as §1

Leishmania infantum = test: Antileishmanial activity, L. infantum; assay type: cell-based
Description: as §1

[3] = tested on: Peritoneal Murine Macrophages (PMM); test: Cytotoxicity on peritoneal murine macrophages; assay type: cell-based; conditions: Mus musculus, Macrophage
Description: as §1

[4] = tested on: formation of Advanced Glycation Endproducts (AGEs), BSA-glucose; test: BSA-glucose antiglycation assay; assay type: biochemical, bovine; conditions: for BSA-Glucose % Inhibition: at 0.25 mM (table footnote a)
Description: The BSA (bovine serum albumin) -glucose and BSA-MGO (methyl glyoxal) antiglycation assays were carried out as reported before. The test protocol is attached as Supplementary Materials. […]
1. Antiglycation Assay (BSA-Glucose Assay)
The antiglycation assay was performed according to the method developed by Matsuura et al.
(2002) with minor modifications. The reaction mixture (300 μL) contained bovine serum albumin
(BSA) (10 mg/mL, 135 μL), D-glucose (500 mM, 135 μL) dissolved in phosphate buffer (50 mM, pH
7.4, containing sodium azide (0.02%, added to prevent bacterial growth) and test compounds (30 μL),
at different final concentrations (1.5–0.023 mM for isolated constituents or 100–1.17 μg/mL for
extracts) dissolved in 100 % DMSO. The mixtures were incubated at 60 °C for 48 h. After incubation,
the reaction mixture was allowed to cool down at room temperature. Then 100 μL reaction mixture
was transferred to a new plastic tube (1.5 mL) and the reaction was stopped by adding 10 μL of 100%
(w/v) trichloroacetic acid (TCA) and to precipitate proteins. The TCA-added mixture was kept at 4 °C
for 10 min, followed by centrifugation (14,000 rpm, 4 °C, 4 min). The supernatant containing unreacted
D-glucose, test sample and interfering substances was discarded, whereas the precipitate containing
AGEs-BSA was redissolved with 0.8 mL alkaline PBS (137 mM NaCl, 8.1 mM Na2HPO4, 2.68 mM KCl,
1.47 mM KH2PO4, pH 10). The change in fluorescence intensity (excitation 335 nm, emission 385 nm;
excitation 370, emission 440) due to formation of AGEs was monitored by spectrofluorometry
(Tecan™ Infinite M200, Giessen, The Netherlands). In order to eliminate interference by autofluorescenc e
of the test compounds, a parallel incubation of test substance with BSA at 60 °C without D-glucose
was performed for all samples. Quercetin (0.5–0.0312 mM final concentration) and aminoguanidine
(3–0.046 mM final concentration) were used as reference compounds.
2. The AGEs Inhibition was Calculated as
% inhibition = {1 − (FBSA + glucose + test substance − FBSA + test substance)/(FBSA
+ glucose − FBSA)} × 100 (1)
where F is the fluorescence intensity.
calculated using Sigma plot® 13.0. […]

[5] = tested on: formation of Advanced Glycation Endproducts (AGEs), BSA-MGO (methyl glyoxal); test: BSA-MGO antiglycation assay; assay type: biochemical, bovine
Description: The BSA (bovine serum albumin) -glucose and BSA-MGO (methyl glyoxal) antiglycation assays were carried out as reported before. The test protocol is attached as Supplementary Materials.
Supplementary Materials: Antiprotozoal and
Antiglycation Activities of Sesquiterpene Coumarins
from Ferula narthex Exudate […]
2. The AGEs Inhibition was Calculated as […]
3. Protein-Glyoxal Interaction (BSA-MGO Assay)
The antiglycation assay using methylgloxyl (MGO) was performed according to the method
developed by Peng et al. (2007) with slight modifications. Briefly, methylglyoxal (135 μL, 5.75 mM)
was incubated with BSA (135 μL, 10 mg/mL) dissolved in phosphate buffer (50 mM, pH 7.4,
containing sodium azide (0.02%), added to prevent bacterial growth) and test compounds (30 μL) at
different final concentrations (1.5–0.023 mM) in 100% DMSO. The reaction mixture was incubated at
37 °C for one week. Control solutions only contained methylglyoxal (135 μL, 5.75 mM) BSA (135 μL,
1 0 mg/mL) and DMSO (100%) only. The blank samples of similar composition were also prepared
simultaneously and kept at 4 °C for one week. The change in fluorescence intensity (excitation
335 nm, emission 385 nm; excitation 370, emission 440) due to formation of AGEs was monitored by
spectrofluorometry (Tecan® Infinite M200, Giessen, The Netherlands). Aminoguanidine (3–0.046 mM
final concentration) was used as reference compound. The AGEs inhibition was calculated as
% AGEs inhibition = [1 − (S − Sb)/(C − Cb)] × 100 (2)
where S and C were fluorescence of test samples (in DMSO) and control (test mixtures containing
only DMSO) incubated at 37 °C, and where Sb and Cb were fluorescence for samples incubated at 4 °C. […]

Staphylococcus aureus = test: Antibacterial screening, S. aureus; assay type: cell-based
Description: as §1

[6] = tested on: formation of Advanced Glycation Endproducts (AGEs), BSA-MGO (methyl glyoxal); test: BSA-MGO antiglycation assay; assay type: biochemical, bovine; conditions: at 2 mM
Microsporum canis = test: Antifungal screening, M. canis; assay type: cell-based
Description: as §1

Aspergillus fumigatus = test: Antifungal screening, A. fumigatus; assay type: cell-based
Description: as §1

Which IC50 (Trypanosoma brucei) does the source give for `Cc1ccc(C(=O)Nc2ccc(S(=O)(=O)O)c3cc(S(=O)(=O)O)cc(S(=O)(=O)O)c23)cc1NC(=O)c1cccc(NC(=O)Nc2cccc(C(=O)Nc3cc(C(=O)Nc4ccc(S(=O)(=O)O)c5cc(S(=O)(=O)O)cc(S(=O)(=O)O)c45)ccc3C)c2)c1` [suramine, reference compound] here?
The IC50 was 0.03 µM.

Which “IC value, antileishmanial activity” value [1] does the source give for `CC1=CC[C@@H]2C(C)(C)[C@@H](O)CC[C@@]2(C)[C@@H]1COc1ccc2ccc(=O)oc2c1` [conferol] here?
Its value is 11.51 µg/mL.

For `COc1cc(Cc2cnc(N)nc2N)cc(OC)c1OC` [trimethoprim], which IC50 (Escherichia coli) is on record?
Its IC50 is 0.25 µg/mL.

With `CC(=O)OC(CC=C(C)C)/C(C)=C/C(O)C/C(C)=C/COc1ccc2ccc(=O)oc2c1` (centres unmarked) [Compound 3, 8′-O-Acetyl-asacoumarin A] as the compound, how does the IC50 [2] read?
The IC50 was 31.7 µM.

What about the IC50 (Plasmodium falciparum K1) of the same compound?
Its IC50 is 7.4 µM.

What about the IC50 (Trypanosoma brucei) of the same compound?
The IC50 was 32.4 µM.

And the IC50 (Trypanosoma cruzi)?
Its IC50 is 19.1 µM.

And the IC50 (Leishmania infantum)?
The IC50 was 12.7 µM.

What about the IC50 [3] of the same compound?
Its IC50 is 32 µM.

What about the “BSA-Glucose IC50” value [4] of the same compound?
Its value is “did not reach the 50% inhibition level”.

And the “BSA-Glucose % Inhibition” value [4]?
Its value is 44%.

And the IC50 [5]?
The IC50 was 1030 µM.

For `O=C(N[C@H](CO)[C@H](O)c1ccc([N+](=O)[O-])cc1)C(Cl)Cl` [chloramphenicol], which IC50 (Escherichia coli) is on record?
The IC50 was 4.9 µM.

With `C/C(=C\COc1ccc2ccc(=O)oc2c1)CC/C=C(\C)CC[C@@H](O)C(C)(C)O` [Compound 5, 10′R-Karatavacinol] as the compound, how does the IC50 [2] read?
Its IC50 is 20.4 µM.

What about the IC50 (Plasmodium falciparum K1) of the same compound?
Its IC50 is 16 µM.

And the IC50 (Trypanosoma brucei)?
The IC50 was 32.4 µM.

And the IC50 (Trypanosoma cruzi)?
The IC50 was 9.4 µM.

What about the IC50 (Leishmania infantum) of the same compound?
Its IC50 is 32.4 µM.

What about the IC50 [3] of the same compound?
The IC50 was 32 µM.

And the “BSA-Glucose IC50” value [4]?
Its value is “did not reach the 50% inhibition level”.

And the “BSA-Glucose % Inhibition” value [4]?
Its value is 32%.

What about the IC50 [5] of the same compound?
Its IC50 is 1830 µM.

With `CC[C@H]1OC(=O)[C@H](C)[C@@H](O[C@H]2C[C@@](C)(OC)[C@@H](O)[C@H](C)O2)[C@H](C)[C@@H](O[C@@H]2O[C@H](C)C[C@H](N(C)C)[C@H]2O)[C@](C)(O)C[C@@H](C)C(=O)[C@H](C)[C@@H](O)[C@]1(C)O` [erythromycin] as the compound, how does the IC50 (Staphylococcus aureus) read?
Its IC50 is 11.2 µg/mL (≈ 15.3 µM).

For `CC(=O)O[C@H](CC/C(C)=C/CC/C(C)=C/COc1ccc2ccc(=O)oc2c1)C(C)(C)O` [Compound 6, 10′R-Acetyl-karatavacinol], which “BSA-Glucose IC50” value [4] is on record?
Its value is “did not reach the 50% inhibition level”.

What about the “BSA-Glucose % Inhibition” value [4] of the same compound?
The value was 36%.

And the “BSA-MGO IC50” value [5]?
The value was “the 50% inhibition level was not reached”.

What about the “BSA-MGO % Inhibition” value [6] of the same compound?
The value was 20%.

With `O=C(Cn1ccnc1[N+](=O)[O-])NCc1ccccc1` [benznidazole, reference compound] as the compound, how does the IC50 (Trypanosoma cruzi) read?
The IC50 was 3.3 µM.

Which results are given for `N=C(N)NN` [Aminoguanidine, reference compound]?
IC50 [4]: 1750 µM; IC50 [5]: 150 µM

With `CC1=CC(=O)[C@@H]2C(C)(C)[C@H](O)CC[C@@]2(C)[C@@H]1COc1ccc2ccc(=O)oc2c1` [Compound 2, Ligupersin A] as the compound, how does the IC50 [4] read?
Its IC50 is 410 µM.

What about the “BSA-MGO IC50” value [5] of the same compound?
The value was “the 50% inhibition level was not reached”.

And the “BSA-MGO % Inhibition” value [6]?
The value was 40%.

With `O=c1c(O)c(-c2ccc(O)c(O)c2)oc2cc(O)cc(O)c12` [Quercetin, reference compound] as the compound, how does the IC50 [4] read?
The IC50 was 230 µM.

And the IC50 [5]?
Its IC50 is 350 µM.

With `CC(C)=CCC(O)/C(C)=C/C(O)C/C(C)=C/COc1ccc2ccc(=O)oc2c1` (centres unmarked) [Compound 4, Asacoumarin A] as the compound, how does the IC50 [2] read?
Its IC50 is 11.7 µM.

And the IC50 (Plasmodium falciparum K1)?
Its IC50 is 1.3 µM.

And the IC50 (Trypanosoma brucei)?
The IC50 was 32.6 µM.

What about the IC50 (Trypanosoma cruzi) of the same compound?
The IC50 was 10.5 µM.

And the IC50 (Leishmania infantum)?
Its IC50 is 12.7 µM.

What about the IC50 [3] of the same compound?
Its IC50 is 32 µM.

What about the IC50 [4] of the same compound?
The IC50 was 1830 µM.

And the “BSA-MGO IC50” value [5]?
The value was “the 50% inhibition level was not reached”.

And the “BSA-MGO % Inhibition” value [6]?
The value was 35%.

For `CCN(CC)CCCC(C)Nc1ccnc2cc(Cl)ccc12` (centres unmarked) [chloroquine, reference compound], which IC50 (Plasmodium falciparum K1) is on record?
Its IC50 is 0.16 µM.

With `CN(C/C=C/C#CC(C)(C)C)Cc1cccc2ccccc12` [terbinafine] as the compound, how does the IC50 (Microsporum canis) read?
The IC50 was 0.11 µg/mL (≈ 0.377 µM).

What about the IC50 (Aspergillus fumigatus) of the same compound?
Its IC50 is 0.8 µM.

Which IC50 [2] does the source give for `CC1=CC[C@@H]2C(C)(C)[C@H](O)CC[C@@]2(C)[C@@H]1COc1ccc2ccc(=O)oc2c1` [Compound 1, Feselol] here?
Its IC50 is 8 µM.

And the IC50 (Plasmodium falciparum K1)?
The IC50 was 22.4 µM.

And the IC50 (Trypanosoma brucei)?
The IC50 was 8.1 µM.

And the IC50 (Trypanosoma cruzi)?
Its IC50 is 8.6 µM.

What about the IC50 (Leishmania infantum) of the same compound?
Its IC50 is 6.8 µM.

And the IC50 [3]?
Its IC50 is 8 µM.

And the “BSA-Glucose IC50” value [4]?
Its value is “did not reach the 50% inhibition level”.

And the “BSA-Glucose % Inhibition” value [4]?
The value was 47%.

And the IC50 [5]?
The IC50 was 1710 µM.
